The record followed here is PubChem BioAssay (NCI).

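Each compound was tested at five concentrations against cells in 96-well plates for 48 hours. At the GI50, growth is halved. TGI is the concentration that stops growth completely.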 Some results are limits rather than exact numbers.

Test systems include EKVX NSCLC; HCT-116 colon; HCT-15 colon; HL-60(TB) leukemia; LOX IMVI melanoma; NCI-H226 lung; OVCAR-4 ovarian; SK-OV-3 ovarian; UACC-257 melanoma.
Common to all, as to assay: NCI anticancer screen, dose series, 48 h

On to `CC1=C2C(=CC(C)(CO)C2O)C(=O)C(C)(O)C12CC2` (centres undefined), for which the TGI in the experiment on EKVX NSCLC came to 0.0335 µM; in the experiment on HCT-116 colon, 0.0478 µM; in the experiment on HCT-15 colon, 0.0462 µM; with HL-60(TB) leukemia it was 0.00697 µM; with LOX IMVI melanoma it was 0.00992 µM; in the experiment with NCI-H226 lung, 0.015 µM. In addition, the TGI is 0.0131 µM with OVCAR-4 ovarian, 0.0424 µM with SK-OV-3 ovarian and 0.00867 µM in the experiment with UACC-257 melanoma. In the experiment on OVCAR-4 ovarian, the GI50 is 0.00378 µM.

In the case of `O=[N+]([O-])c1ccc2c(c1)OCCOCCOc1ccc([N+](=O)[O-])cc1OCCOCCO2`, the TGI with EKVX NSCLC, in the experiment on HCT-116 colon, with HCT-15 colon, in the experiment on HL-60(TB) leukemia, in the experiment on LOX IMVI melanoma and in the experiment on NCI-H226 lung was over 100 µM throughout. Moreover, the TGI in the experiment on OVCAR-4 ovarian, in the experiment on SK-OV-3 ovarian and in the experiment with UACC-257 melanoma was over 100 µM throughout.

`O=NN(CCCl)C(=O)NCc1ccc[n+]([O-])c1`: the TGI in the experiment on EKVX NSCLC, in the experiment with HCT-116 colon, in the experiment on HCT-15 colon, with HL-60(TB) leukemia, in the experiment with LOX IMVI melanoma and in the experiment on NCI-H226 lung was over 100 µM each time. Besides, the TGI with OVCAR-4 ovarian, in the experiment on SK-OV-3 ovarian and with UACC-257 melanoma was over 100 µM each time.

As to `Brc1nc2c3ccccc3ncn2c1Br`, the TGI was 95.9 µM with EKVX NSCLC; over 100 µM in the experiment on HCT-116 colon; over 100 µM with HCT-15 colon; over 100 µM in the experiment on HL-60(TB) leukemia; 77.4 µM in the experiment on LOX IMVI melanoma; over 100 µM with NCI-H226 lung. In addition, the TGI in the experiment with OVCAR-4 ovarian is 42.7 µM; in the experiment on SK-OV-3 ovarian it was over 100 µM; with UACC-257 melanoma, over 100 µM.

For the compound `O=[N+]([O-])c1ccc(OCCNc2cccc3ccccc23)cc1`, the TGI in the experiment with EKVX NSCLC, with HCT-116 colon, in the experiment on HCT-15 colon, with NCI-H226 lung, in the experiment with OVCAR-4 ovarian and in the experiment with SK-OV-3 ovarian was over 100 µM throughout. The compound also yielded a TGI in the experiment with UACC-257 melanoma of over 100 µM.

Turning to `CN(OC(=O)CC(=O)c1ccccc1)C(=O)Cc1ccccc1`, the TGI in the experiment with EKVX NSCLC, with HCT-116 colon, in the experiment on HCT-15 colon, in the experiment with HL-60(TB) leukemia, in the experiment with LOX IMVI melanoma and in the experiment with NCI-H226 lung was over 100 µM in each case. The TGI with OVCAR-4 ovarian, with SK-OV-3 ovarian and with UACC-257 melanoma was over 100 µM each time.

With `COc1cccc(/C=C\c2cc(OC)c(OC)c(OC)c2)c1`, the TGI is over 100 µM in the experiment on EKVX NSCLC; over 100 µM with HCT-116 colon; over 100 µM with HCT-15 colon; 83.9 µM with NCI-H226 lung; over 100 µM with OVCAR-4 ovarian; over 100 µM with SK-OV-3 ovarian. Further, the TGI with UACC-257 melanoma was found to be 47.3 µM.

As to `O=C1C(c2ccc(Cl)cc2)=[N+]([O-])c2ccccc21`, the TGI with EKVX NSCLC worked out at 28.9 µM; with HCT-116 colon, 27.8 µM; in the experiment with HCT-15 colon, 41.3 µM; with HL-60(TB) leukemia, 24 µM; in the experiment on LOX IMVI melanoma, 27.7 µM; with NCI-H226 lung it was 47 µM. Besides, the results for the TGI in the experiment on SK-OV-3 ovarian and in the experiment with UACC-257 melanoma were over 100 µM and 30.3 µM, respectively.

On to `C=CC[P@@]1(=O)O[C@H](c2ccccc2)C(C)N1C(C)C` (some centres undefined), for which the TGI in the experiment on EKVX NSCLC, with HCT-15 colon, in the experiment on HL-60(TB) leukemia, in the experiment on LOX IMVI melanoma, in the experiment on NCI-H226 lung and with OVCAR-4 ovarian was over 100 µM throughout. In the experiment with SK-OV-3 ovarian, this compound registered a TGI of over 100 µM.

On to `O=C1C2c3[nH]c4ccccc4c3C3CCSCC3C2C(=O)N1c1ccccc1` (centres undefined), for which the TGI with EKVX NSCLC, in the experiment on HCT-116 colon, in the experiment with HCT-15 colon, in the experiment on HL-60(TB) leukemia, in the experiment on LOX IMVI melanoma and in the experiment on NCI-H226 lung was over 100 µM each time. The TGI in the experiment on OVCAR-4 ovarian, in the experiment on SK-OV-3 ovarian and in the experiment on UACC-257 melanoma was over 100 µM throughout.

Consider `COCC1N=C(c2ccc(OC)c(OCc3ccccc3)c2OC)O[C@H]1c1ccccc1` (some centres undefined), for which the TGI is over 100 µM in the experiment with EKVX NSCLC; 34.5 µM with HCT-116 colon; 94.5 µM with HCT-15 colon; 40.4 µM with HL-60(TB) leukemia; 29.6 µM in the experiment on LOX IMVI melanoma; 81.1 µM with NCI-H226 lung. Moreover, the results for the TGI with OVCAR-4 ovarian and in the experiment with SK-OV-3 ovarian were over 100 µM and 96.1 µM, respectively.

Take `O=C(c1ccccc1)c1ccc2cccc(O)c2n1`: the TGI in the experiment on EKVX NSCLC is 69 µM; in the experiment with HCT-116 colon it was 35.1 µM; in the experiment with HCT-15 colon it was over 100 µM; in the experiment on LOX IMVI melanoma it was 28 µM; with NCI-H226 lung, over 100 µM; in the experiment with OVCAR-4 ovarian it was over 100 µM.

`CC(=O)CC(=O)CCCC(=O)Nc1ccc(Cl)cc1Cl`: the TGI in the experiment on HCT-116 colon, in the experiment on HCT-15 colon, with HL-60(TB) leukemia, with LOX IMVI melanoma, with NCI-H226 lung and in the experiment with OVCAR-4 ovarian was over 100 µM each time. Also, the TGI with SK-OV-3 ovarian and in the experiment on UACC-257 melanoma was over 100 µM each time.

Consider `Cc1c2[nH]c3ccc(Br)cc3c2c(C)c2[nH]ccc(=O)c12`, for which the TGI in the experiment on EKVX NSCLC was determined as 33.5 µM; in the experiment on HCT-116 colon, 28.2 µM; with HCT-15 colon, 30.4 µM; in the experiment with HL-60(TB) leukemia it was 38.5 µM; in the experiment with LOX IMVI melanoma it was 32.7 µM; with NCI-H226 lung it was 35.9 µM. Also, the values for the TGI in the experiment with OVCAR-4 ovarian and in the experiment with UACC-257 melanoma were 31.3 µM and 34.9 µM, respectively.

Take `Cc1cc(N(CCC#N)CCC#N)ccc1N=Nc1ccccc1[N+](=O)[O-]`: the TGI in the experiment with EKVX NSCLC, with HCT-15 colon, in the experiment with HL-60(TB) leukemia, with LOX IMVI melanoma, with NCI-H226 lung and in the experiment with OVCAR-4 ovarian was over 100 µM in each case. Further, the TGI in the experiment with SK-OV-3 ovarian and with UACC-257 melanoma was over 100 µM in each case.

In the case of `Cc1ccc(C)c(NC(=O)CC2C(=O)Nc3ccccc3S2(=O)=O)c1` (centres undefined), the TGI with EKVX NSCLC, in the experiment on HCT-116 colon, in the experiment with HCT-15 colon, with HL-60(TB) leukemia, in the experiment on LOX IMVI melanoma and in the experiment on NCI-H226 lung was over 100 µM throughout. Moreover, the TGI is 38.7 µM in the experiment with OVCAR-4 ovarian and over 100 µM with UACC-257 melanoma.

For `NC(=O)c1csc(C2O[C@@H](COP(=O)(O)OP(=O)(O)OC[C@H]3OC(n4cnc5c(N)ncnc54)[C@H](O)[C@@H]3O)[C@H](O)[C@@H]2O)n1` (some centres undefined), the TGI in the experiment on EKVX NSCLC, in the experiment on HCT-15 colon, in the experiment with HL-60(TB) leukemia, in the experiment on LOX IMVI melanoma, in the experiment with NCI-H226 lung and with OVCAR-4 ovarian was over 100 µM throughout. Also, the TGI with SK-OV-3 ovarian and in the experiment with UACC-257 melanoma was over 100 µM each time.

Take `O=C(Nc1cccc(C2=NCCN2)c1)c1ccc(OCCCOc2ccc(C(=O)Nc3cccc(C4=NCCN4)c3)cc2)cc1`: the GI50 with HCT-15 colon was 20.2 µM; with HL-60(TB) leukemia, 2.3 µM; with SK-OV-3 ovarian it was 2.39 µM. Further, the TGI with HCT-15 colon is over 100 µM; with HL-60(TB) leukemia, over 100 µM; with SK-OV-3 ovarian it was 5.41 µM.

Take `Cc1ccc(C2=[N+]([O-])c3ccccc3C2=O)cc1`: the TGI with EKVX NSCLC was 51.7 µM; in the experiment on HCT-116 colon, over 54.4 µM; with HCT-15 colon, 42 µM; in the experiment with HL-60(TB) leukemia, 33.6 µM; with LOX IMVI melanoma, 31.2 µM; with NCI-H226 lung, over 100 µM. For the same compound, the TGI with SK-OV-3 ovarian was over 100 µM; in the experiment on UACC-257 melanoma, 33 µM.

For `O=C(Nc1ccccc1)O/N=C1/CCCC/C1=C\c1ccccc1`, the TGI in the experiment with HCT-116 colon stood at 26.6 µM; with HCT-15 colon it was 23.4 µM; in the experiment with LOX IMVI melanoma, 34 µM; in the experiment with NCI-H226 lung it was 49.6 µM; in the experiment on OVCAR-4 ovarian, 30.3 µM; with SK-OV-3 ovarian it was 35.6 µM. Also, the TGI in the experiment with UACC-257 melanoma was found to be 35.1 µM.

Take `N#Cc1c2ccccc2c2nnc3cc(C(F)(F)F)ccc3n12`: the GI50 in the experiment on EKVX NSCLC was over 100 µM; in the experiment on HCT-116 colon, 25.4 µM; with HCT-15 colon, 93.4 µM; in the experiment on HL-60(TB) leukemia it was 58.6 µM; in the experiment with LOX IMVI melanoma it was 21.7 µM; with OVCAR-4 ovarian, 55.5 µM. Besides, the GI50 with SK-OV-3 ovarian was over 100 µM. Moreover, the TGI in the experiment on EKVX NSCLC is over 100 µM; with HCT-116 colon, over 100 µM; in the experiment with HCT-15 colon it was over 100 µM; in the experiment on HL-60(TB) leukemia, over 100 µM; in the experiment with LOX IMVI melanoma, 62.9 µM; in the experiment on OVCAR-4 ovarian, over 100 µM. In the experiment with SK-OV-3 ovarian, this compound came in with a TGI of over 100 µM.

As for `COC1CCC2C(=O)CCCC2O1` (centres undefined), the TGI in the experiment on EKVX NSCLC, with HCT-116 colon, with HCT-15 colon, with HL-60(TB) leukemia, with NCI-H226 lung and in the experiment on OVCAR-4 ovarian was over 100 µM in each case. For the same compound, the TGI with SK-OV-3 ovarian and in the experiment with UACC-257 melanoma was over 100 µM throughout.

On to `COc1c2c(c(OC)c3c(=O)cc(C/C(=N/NC(=O)C[n+]4ccccc4)C(=O)Nc4cc(C)ccc4C)oc13)OCO2`, for which the TGI with EKVX NSCLC, in the experiment with HCT-116 colon, in the experiment with HCT-15 colon, with HL-60(TB) leukemia, in the experiment on LOX IMVI melanoma and with OVCAR-4 ovarian was over 100 µM throughout. In addition, the TGI in the experiment on SK-OV-3 ovarian and in the experiment with UACC-257 melanoma was over 100 µM each time.
